Where two headings read alike, the source gives them in different places.
Tests used:
[1] = MAD study pharmacokinetic analysis; format: in vivo, human; conditions: for AUC / Cmax / Tmax: male, human, plasma, oral; for Cmax: read-out: Cmax (Geomean); for Tmax: read-out: tmax* (median)
Method: Dose escalation to the next dose level was done after evaluation of the safety and the first 24-hour pharmacokinetic results of the previous dose. […] Anticipated exposures at this starting dose were just below the Minimum Anticipated Biological Effect Level (MABEL). Placebo (an in taste and appearance matching oral liquid) was also administered orally on one occasion in the single-ascending dose part and b.i.d. for 7 Days in the MAD part. […] All samples were stored at <-70° C. until analysis. […] For mean value calculations, all values below the limit of quantification (LOQ) were set to zero. […] The non-compartmental pharmacokinetic analysis was performed using Phoenix, Version 6.3 (Pharsight Corporation, Mountain View, Calif., USA). […] The PK parameters were calculated on the basis of the actual blood sampling time points relative to dosing. Selected pharmacokinetic parameters (Cmax, tmax, t1/2, AUClast and AUC0-int) following single-dose administration and selected pharmacokinetic parameters Cmax, tmax, [NT], the accumulation factor (Racc) and time to reach steady state) following multiple dose administration were determined. In urine, the percentage of dose excreted in urine was determined for the single- and multiple-dose administration.

[2] = ECG post-hoc analysis, MAD study; format: in vivo, human; parameters: QTcF: largest median baseline increase / QTcF: largest individual increase: unit not given here
Method: The changes from baseline (pre-dose assessment on Day 1) for body weight, physical examinations, vital signs, ECG-variables and clinical laboratory variables were determined for each time point. Treatment-emergent laboratory and ECG abnormalities as well as adverse events were monitored throughout the study, up to 28 Days after the last study drug intake.
The goal of this post-hoc optimization study was to repeat the ECG assessment with an highly automated computer-assisted approach where in addition to the re-evaluation of standard intervals (PR, QRS and QT intervals), a set of parameters describing repolarization morphology were considered. The morphology indices were the TpTe interval (interval from the T wave apex to the end of the T wave), the TpTe/QT index (the ratio between the TpTe interval and the QT interval), Tamp (the amplitude in microvolt units of the T wave) and TSym (an index of repolarization morphology based on the symmetry of the T wave).
ECGs were digitally recorded using a Schiller AT104 ECG machine (500 Hz, 1 μV). Cardiac interval measurements were performed on the Global Superimposed Median Beat (GSMB), a methodology that allows measurements that consider each of the 12 individual median beats. This measurement methodology ensures that the PR, QRS, and QT interval are measured from the earliest onset in any lead to the latest deflection in any lead. Cardiologist overview of the computer-based measurements is based on the superimposed (overlapped) display of the individual median beats, to assure measurements are performed at the earliest onset of any viable lead to the latest offset of any viable lead.
The RR interval used for heart-rate correction of the QT interval (QTcB) was based on all the beats in the ten second recording.
Other cardiac parameters were computed from the 12-lead vector magnitude VM (e.g. the square root of the sum of squares at each digital sample) computed from the individual median beats. On the VM lead, the apex of the T wave is placed and used to compute the TpTe interval (using the end of the T wave from the GSMB) and the T wave amplitude (height in microvolt of the VM T peak from the isoelectric line). […] T wave symmetry index was computed using a proprietary approach based on Gaussian Mesa function modeling (GMF) of the repolarization waves (Badilini F et al. J Electrocardiol 2008, 41:588-594). Briefly, the ascending and descending phases of the VM T wave are modeled by two independent half-Gaussian curves (see FIG. 3). The standard deviations of these functions (σ1 and σ2) and indicators of the ascending/descending speed and their ratio is an index of symmetry (TSym=σ1/σ2; TSym=1 for a perfectly symmetric T wave, TSym<1 for slow-ascending/fast-descending T waves, T>1 for fast-ascending/slow-decending T waves).
For the pre-dose (baseline) ECGs, all parameters per time point were calculated as the averages of the triplicate ECGs. Computation of QTcB and QTcF was performed using the RR interval averaged from the total ECG acquisition duration (10 seconds) and in the case of the triplicate ECGs is based on the average QT and average HR of the replicate ECGs.
The over-reading cardiologist provided a clinical interpretation for each ECG at each time point. Each ECG was classified as Normal, Abnormal Clinically Insignificant (ACI), or Abnormal Clinically Significant (ACS). Results of this post-hoc analysis were used for an exposure-response evaluation for the changes in the electrophysiological parameters as a function of the concentration of KH176.

[3] = target: hERG potassium channel (Homo sapiens, UniProt Q12809); test: hERG blocking; format: biochemical
hERG potassium channel, sequence (Q12809 whole entry): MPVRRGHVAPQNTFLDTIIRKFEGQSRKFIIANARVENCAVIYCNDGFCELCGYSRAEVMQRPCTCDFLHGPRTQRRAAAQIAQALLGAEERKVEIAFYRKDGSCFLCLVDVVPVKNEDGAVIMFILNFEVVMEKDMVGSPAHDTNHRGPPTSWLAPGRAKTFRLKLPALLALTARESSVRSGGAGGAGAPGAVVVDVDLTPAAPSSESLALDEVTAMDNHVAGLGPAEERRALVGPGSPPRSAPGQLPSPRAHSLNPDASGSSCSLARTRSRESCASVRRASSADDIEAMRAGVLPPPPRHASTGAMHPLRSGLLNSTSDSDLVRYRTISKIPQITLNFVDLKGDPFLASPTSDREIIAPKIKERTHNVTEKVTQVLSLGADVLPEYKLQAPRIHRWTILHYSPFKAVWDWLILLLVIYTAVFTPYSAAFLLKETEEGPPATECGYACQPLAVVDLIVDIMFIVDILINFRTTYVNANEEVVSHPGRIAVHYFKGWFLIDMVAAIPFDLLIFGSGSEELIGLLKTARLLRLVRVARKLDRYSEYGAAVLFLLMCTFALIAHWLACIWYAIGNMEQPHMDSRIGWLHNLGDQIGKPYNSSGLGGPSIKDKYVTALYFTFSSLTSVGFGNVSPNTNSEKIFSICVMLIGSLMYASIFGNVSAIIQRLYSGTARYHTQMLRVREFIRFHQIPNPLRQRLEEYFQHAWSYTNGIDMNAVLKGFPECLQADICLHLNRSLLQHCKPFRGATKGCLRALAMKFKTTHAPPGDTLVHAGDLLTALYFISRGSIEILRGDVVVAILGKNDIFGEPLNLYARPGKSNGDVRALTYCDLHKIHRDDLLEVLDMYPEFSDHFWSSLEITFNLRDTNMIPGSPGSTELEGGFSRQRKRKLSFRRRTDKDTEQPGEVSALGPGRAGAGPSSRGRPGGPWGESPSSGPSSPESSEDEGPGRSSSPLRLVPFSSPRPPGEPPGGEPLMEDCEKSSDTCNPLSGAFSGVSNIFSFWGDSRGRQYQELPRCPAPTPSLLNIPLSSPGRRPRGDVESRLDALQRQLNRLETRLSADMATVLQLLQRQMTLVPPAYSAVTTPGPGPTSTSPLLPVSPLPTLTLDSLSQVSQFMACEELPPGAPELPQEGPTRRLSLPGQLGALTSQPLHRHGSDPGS

[4] = target: CYP3A4 (Homo sapiens, UniProt P08684); test: In vitro metabolism; format: in vitro ADME
CYP3A4, sequence (P08684 whole entry): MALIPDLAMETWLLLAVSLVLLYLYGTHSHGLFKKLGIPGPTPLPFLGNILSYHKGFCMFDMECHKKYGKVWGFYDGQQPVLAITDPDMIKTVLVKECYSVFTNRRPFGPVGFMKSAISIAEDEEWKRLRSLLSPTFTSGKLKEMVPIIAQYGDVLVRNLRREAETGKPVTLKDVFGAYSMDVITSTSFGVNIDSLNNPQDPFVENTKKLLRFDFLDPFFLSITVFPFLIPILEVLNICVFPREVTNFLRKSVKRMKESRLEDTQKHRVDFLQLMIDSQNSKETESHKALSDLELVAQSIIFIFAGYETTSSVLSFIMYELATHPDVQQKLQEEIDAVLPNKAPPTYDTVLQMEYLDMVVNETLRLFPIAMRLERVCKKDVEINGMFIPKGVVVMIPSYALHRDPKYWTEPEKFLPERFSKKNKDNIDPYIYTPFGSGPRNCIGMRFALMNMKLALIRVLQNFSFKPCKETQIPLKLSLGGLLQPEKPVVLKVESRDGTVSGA

[5] = target: PgP efflux pump (Homo sapiens, UniProt P08183); test: In vitro efflux; format: in vitro ADME
PgP efflux pump, sequence (P08183 whole entry): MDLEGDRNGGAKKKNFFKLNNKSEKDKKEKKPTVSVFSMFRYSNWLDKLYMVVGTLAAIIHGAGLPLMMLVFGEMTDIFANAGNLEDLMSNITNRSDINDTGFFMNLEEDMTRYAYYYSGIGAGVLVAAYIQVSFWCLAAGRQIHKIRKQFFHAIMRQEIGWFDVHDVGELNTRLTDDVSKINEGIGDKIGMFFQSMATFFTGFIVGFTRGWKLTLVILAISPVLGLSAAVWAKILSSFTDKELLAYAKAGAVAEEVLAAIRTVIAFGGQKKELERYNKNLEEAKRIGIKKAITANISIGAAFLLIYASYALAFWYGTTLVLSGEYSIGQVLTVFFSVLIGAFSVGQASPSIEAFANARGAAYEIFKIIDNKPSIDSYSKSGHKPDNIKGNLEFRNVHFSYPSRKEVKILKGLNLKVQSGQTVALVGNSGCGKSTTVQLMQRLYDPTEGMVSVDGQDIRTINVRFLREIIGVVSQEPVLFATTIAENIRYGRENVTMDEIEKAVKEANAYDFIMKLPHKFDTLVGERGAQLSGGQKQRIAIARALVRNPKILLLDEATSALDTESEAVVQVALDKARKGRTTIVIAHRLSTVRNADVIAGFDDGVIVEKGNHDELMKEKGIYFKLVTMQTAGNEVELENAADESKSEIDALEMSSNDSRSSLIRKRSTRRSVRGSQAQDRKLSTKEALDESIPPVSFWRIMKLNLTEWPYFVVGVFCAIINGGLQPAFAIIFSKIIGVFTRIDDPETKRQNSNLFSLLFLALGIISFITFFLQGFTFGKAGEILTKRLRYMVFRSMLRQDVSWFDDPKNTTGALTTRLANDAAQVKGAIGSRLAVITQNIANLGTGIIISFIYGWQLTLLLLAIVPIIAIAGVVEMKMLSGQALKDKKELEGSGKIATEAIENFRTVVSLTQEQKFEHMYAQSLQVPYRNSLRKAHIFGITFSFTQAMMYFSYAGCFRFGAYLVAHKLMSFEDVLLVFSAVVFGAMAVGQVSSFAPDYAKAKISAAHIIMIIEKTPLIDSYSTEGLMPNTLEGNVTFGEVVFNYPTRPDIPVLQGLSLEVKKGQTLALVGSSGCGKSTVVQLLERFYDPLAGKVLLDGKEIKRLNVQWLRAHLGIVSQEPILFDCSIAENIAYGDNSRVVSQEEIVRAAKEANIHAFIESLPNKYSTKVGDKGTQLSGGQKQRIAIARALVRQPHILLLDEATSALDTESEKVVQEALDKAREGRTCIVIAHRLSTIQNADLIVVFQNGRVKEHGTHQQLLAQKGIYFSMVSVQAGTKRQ

[6] = 100 mg, MAD, KH176 100 mg b.i.d, Day 1
[7] = 100 mg, MAD, KH176 100 mg b.i.d, Day 7
[8] = 200 mg, MAD, KH176 200 mg b.i.d, Day 1
[9] = 200 mg, MAD, KH176 200 mg b.i.d, Day 7
[10] = 400 mg, MAD, KH176 400 mg b.i.d, Day 1
[11] = 400 mg, MAD, KH176 400 mg b.i.d, Day 7

Cc1c(C)c2c(c(C)c1O)CC[C@@](C)(C(=O)N[C@@H]1CCCNC1)O2.Cl [KH176, (S)-6-hydroxy-2,5,7,8-tetramethyl-N-((R)-piperidin-3-yl)chroman-2-carboxamide hydrochloride]
Racc (accumulation ratio, Geomean) ([1]; MAD, KH176 100 mg b.i.d, Day 7): 2.52 | Racc (accumulation ratio, Geomean) ([1]; MAD, KH176 200 mg b.i.d, Day 7): 2.65 | Racc (accumulation ratio, Geomean) ([1]; MAD, KH176 400 mg b.i.d, Day 7): 2.17 | steady concentrations reached by (first trough measurement) ([1]; MAD, mean trough concentration-time curves): ≤ 4 days | AUC ([1]; 100 mg, MAD, KH176 100 mg b.i.d, Day 1, read-out: AUCtau (Geomean)): 1090 ng·h/mL | Cmax [1, 6]: 184 ng/mL | Tmax [1, 6]: 1.25 h | AUC ([1]; 100 mg, MAD, KH176 100 mg b.i.d, Day 7, read-out: AUCtau (Geomean)): 2760 ng·h/mL | Cmax [1, 7]: 353 ng/mL | Tmax [1, 7]: 1 h | AUC ([1]; 200 mg, MAD, KH176 200 mg b.i.d, Day 1, read-out: AUCtau (Geomean)): 2250 ng·h/mL | Cmax [1, 8]: 313 ng/mL | Tmax [1, 8]: 1.75 h | AUC ([1]; 200 mg, MAD, KH176 200 mg b.i.d, Day 7, read-out: AUCtau (Geomean)): 5960 ng·h/mL | Cmax [1, 9]: 748 ng/mL | Tmax [1, 9]: 2 h | AUC ([1]; 400 mg, MAD, KH176 400 mg b.i.d, Day 1, read-out: AUCtau (Geomean)): 6890 ng·h/mL | Cmax [1, 10]: 1330 ng/mL | Tmax [1, 10]: 1 h | AUC ([1]; 400 mg, MAD, KH176 400 mg b.i.d, Day 7, read-out: AUCtau (Geomean)): 14900 ng·h/mL | Cmax [1, 11]: 2100 ng/mL | Tmax [1, 11]: 1.5 h | AUC ([1]; steady state, BID, read-out: AUCtau (one dosing interval, 12 hours), range): 2130 to 3680 ng·h/mL | average concentrations, range ([1]; steady state, 100 mg BID): 177.5 to 306.6 ng/mL | maximum concentration, range ([1]; steady state, 100 mg BID, healthy subjects): 303 to 458 ng/mL | effect on QTcF ([2]; MAD 100 mg b.i.d.): no effect | PR interval: largest median baseline increase ([2]; MAD 200 mg): 12 ms | QTcF: largest individual increase ([2]; MAD 200 mg): 28.3 | QTcF: largest median baseline increase ([2]; MAD 200 mg): 13.3 | T-wave symmetry index: largest individual increase ([2]; MAD 200 mg): 0.6 | T-wave symmetry index: largest median baseline increase ([2]; MAD 200 mg): 0.45 | TpTe interval: largest individual increase ([2]; MAD 200 mg): 46 ms | TpTe interval: largest median baseline increase ([2]; MAD 200 mg): 24 ms | QTcF, median maximum change from baseline ([2]; MAD 200 mg b.i.d., Day 5): 13 ms | PR interval: largest median baseline increase ([2]; MAD 400 mg): 19 ms | QRS interval: largest individual increase ([2]; MAD 400 mg): 15.3 ms | QRS interval: largest median baseline increase ([2]; MAD 400 mg): 9.7 ms | QTcF: largest individual increase ([2]; MAD 400 mg): 43.7 | QTcF: largest median baseline increase ([2]; MAD 400 mg): 29.2 | T-wave symmetry index: largest individual increase ([2]; MAD 400 mg): 0.99 | T-wave symmetry index: largest median baseline increase ([2]; MAD 400 mg): 0.63 | TpTe interval: largest individual increase ([2]; MAD 400 mg): 62.7 ms | TpTe interval: largest median baseline increase ([2]; MAD 400 mg): 42.3 ms | QTcF, median maximum change from baseline at trough ([2]; MAD 400 mg b.i.d., Day 6): 29 ms | IC50 of hERG blocking relative to the Cmax for the highest dose [3]: 3 times | metabolism [4]: metabolized by CYP3A4 | efflux / excretion [5]: excreted by the PgP efflux pump

Reference: US11285130B2, “Treatment of mitochondrial diseases” (Khondrion IP B.V., priority 2017, dated 2022)
